Data taken from the NIST ThermoML archive (doi:10.1021/je900596d).

Conditions: for mass density: 303.28 K, Fluid (supercritical or subcritical phases), Vibrating tube method

FC(F)=C(F)C(F)(F)F [hexafluoropropene]
Conditions | vapor or sublimation pressure [kPa]
303.22 K, Liquid, Closed cell (Static) method | 839.7

Conditions | mass density [kg/m3]
2.4 kPa | 0.14
4.4 kPa | 0.19
5.3 kPa | 0.25
7.7 kPa | 0.38
11 kPa | 0.59
12.7 kPa | 0.7
13.6 kPa | 0.71
14.5 kPa | 0.85
16.3 kPa | 0.86
17.2 kPa | 0.87
18.1 kPa | 1.01
22.7 kPa | 1.19
24.5 kPa | 1.4
26.4 kPa | 1.46
28.1 kPa | 1.59
30 kPa | 1.72
33.6 kPa | 1.94
37.2 kPa | 2.14
38.2 kPa | 2.2
40 kPa | 2.21
41.8 kPa | 2.46
43.6 kPa | 2.43
47.2 kPa | 2.81
50.8 kPa | 3.02
52.5 kPa | 3.04
56 kPa | 3.26
57.9 kPa | 3.38
59.7 kPa | 3.48
61.4 kPa | 3.61
63.1 kPa | 3.73
64.8 kPa | 3.84
66.5 kPa | 3.93
68.3 kPa | 3.99
73.4 kPa | 4.37
76 kPa | 4.49
78.6 kPa | 4.64
81.2 kPa | 4.8
83.8 kPa | 4.98
86.4 kPa | 5.18
88.9 kPa | 5.4
94.2 kPa | 5.64
96.9 kPa | 5.73
98.7 kPa | 5.85
100.4 kPa | 6.09
103.1 kPa | 6.18
105.7 kPa | 6.35
108.4 kPa | 6.54
113.7 kPa | 6.9
116.4 kPa | 6.95
124.2 kPa | 7.43
126.7 kPa | 7.66
132.1 kPa | 7.96
134.8 kPa | 8.17
137.3 kPa | 8.36
139.9 kPa | 8.56
142.5 kPa | 8.68
145.1 kPa | 8.84
147.8 kPa | 9.01
153 kPa | 9.28
155.7 kPa | 9.53
158.4 kPa | 9.61
163.7 kPa | 9.96
166.2 kPa | 10.08
168.8 kPa | 10.29
171.4 kPa | 10.52
174 kPa | 10.66
176.6 kPa | 10.78
179.2 kPa | 10.96
181.8 kPa | 11.08
184.4 kPa | 11.32
187 kPa | 11.51
194.7 kPa | 11.98
197.5 kPa | 12.12
202.8 kPa | 12.46
206.2 kPa | 12.64
209.6 kPa | 12.92
213 kPa | 13.17
216.4 kPa | 13.34
219.9 kPa | 13.6
223.3 kPa | 13.85
226.8 kPa | 14.01
230.3 kPa | 14.3
233.7 kPa | 14.54
244.3 kPa | 15.23
247.7 kPa | 15.41
251.2 kPa | 15.74
254.6 kPa | 15.88
258.1 kPa | 16.18
261.6 kPa | 16.37
265.1 kPa | 16.6
268.6 kPa | 16.83
275.3 kPa | 17.32
278.7 kPa | 17.49
282.2 kPa | 17.78
285.5 kPa | 17.97
289 kPa | 18.22
295.7 kPa | 18.58
299.1 kPa | 18.89
309 kPa | 19.54
313.2 kPa | 19.76
317.3 kPa | 20.15
321.7 kPa | 20.39
325.7 kPa | 20.7
329.8 kPa | 21.01
338 kPa | 21.54
342 kPa | 21.84
346.2 kPa | 22.19
350.3 kPa | 22.34
358.6 kPa | 23.03
362.7 kPa | 23.29
366.9 kPa | 23.58
375.1 kPa | 24.18
379.2 kPa | 24.47
383.4 kPa | 24.75
387.5 kPa | 25.04
391.7 kPa | 25.35
395.8 kPa | 25.63
399.9 kPa | 25.95
406.9 kPa | 26.42
416.6 kPa | 27.12
421.9 kPa | 27.51
426.1 kPa | 27.84
435.7 kPa | 28.54
441.2 kPa | 28.92
446.7 kPa | 29.28
452.1 kPa | 29.75
457.4 kPa | 30.13
461.6 kPa | 30.45
467 kPa | 30.79
472.4 kPa | 31.26
477.7 kPa | 31.6
488.4 kPa | 32.46
